According to US9944602B2, “Piperidinone herbicides” (E. I. DU PONT DE NEMOURS AND COMPANY, priority 2014, dated 2018):

Tests used:
Assay type in all cases: in vivo
[1] = system: barnyardgrass (Echinochloa crus-galli); assay: Test A preemergence barnyardgrass; conditions: Echinochloa crus-galli, pre-emergence, 240 h, 0 to 100 scale, 0 no effect, 100 complete control, read-out: Barnyardgrass plant response rating; for pest or weed control at 125 g/ha: 125 g ai/ha; for pest or weed control at 500 g/ha: 500 g ai/ha
In short: (§1)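 Greenhouse pot test: chemicals formulated with surfactant in non-phytotoxic solvent, sprayed on soil at seeding (pre) or on 1–2 leaf seedlings of 2–10 cm (post). Rating ~10 d later, visual, 0 = no effect to 100 = complete control, relative to untreated controls.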

kochia (Kochia scoparia) [2] = assay: Test A preemergence kochia; conditions: Bassia scoparia, pre-emergence, 240 h, 0 to 100 scale, 0 no effect, 100 complete control, read-out: Kochia plant response rating; for pest or weed control at 125 g/ha: 125 g ai/ha; for pest or weed control at 500 g/ha: 500 g ai/ha
In short: as §1

[3] = system: ragweed (common ragweed, Ambrosia elatior); assay: Test A preemergence ragweed; conditions: Ambrosia artemisiifolia, pre-emergence, 240 h, 0 to 100 scale, 0 no effect, 100 complete control, read-out: Ragweed plant response rating; for pest or weed control at 125 g/ha: 125 g ai/ha; for pest or weed control at 500 g/ha: 500 g ai/ha
In short: as §1

[4] = system: ryegrass, Italian (Italian ryegrass, Lolium multiflorum); assay: Test A preemergence ryegrass, Italian; conditions: Lolium multiflorum, pre-emergence, 240 h, 0 to 100 scale, 0 no effect, 100 complete control, read-out: Ryegrass, Italian plant response rating; for pest or weed control at 125 g/ha: 125 g ai/ha; for pest or weed control at 500 g/ha: 500 g ai/ha
In short: as §1

[5] = system: foxtail, giant (giant foxtail, Setaria faberii); assay: Test A preemergence foxtail, giant; conditions: Setaria faberi, pre-emergence, 240 h, 0 to 100 scale, 0 no effect, 100 complete control, read-out: Foxtail, Giant plant response rating; for pest or weed control at 125 g/ha: 125 g ai/ha; for pest or weed control at 500 g/ha: 500 g ai/ha
In short: as §1

[6] = system: pigweed (Amaranthus retroflexus); assay: Test A preemergence pigweed; conditions: Amaranthus retroflexus, pre-emergence, 240 h, 0 to 100 scale, 0 no effect, 100 complete control, read-out: Pigweed plant response rating; for pest or weed control at 125 g/ha: 125 g ai/ha; for pest or weed control at 500 g/ha: 500 g ai/ha
In short: as §1

[7] = system: barnyardgrass (Echinochloa crus-galli); assay: Test A postemergence barnyardgrass; conditions: Echinochloa crus-galli, post-emergence, 240 h, 0 to 100 scale, 0 is no effect, 100 is complete control, read-out: Plant response rating, Barnyardgrass; for pest or weed control at 125 g/ha: 125 g ai/ha; for pest or weed control at 500 g/ha: 500 g ai/ha
In short: as §1

kochia (Kochia scoparia) [8] = assay: Test A postemergence kochia; conditions: Bassia scoparia, post-emergence, 240 h, 0 to 100 scale, 0 is no effect, 100 is complete control, read-out: Plant response rating, Kochia; for pest or weed control at 125 g/ha: 125 g ai/ha; for pest or weed control at 500 g/ha: 500 g ai/ha
In short: as §1

[9] = system: ragweed (common ragweed, Ambrosia elatior); assay: Test A postemergence ragweed; conditions: Ambrosia artemisiifolia, post-emergence, 240 h, 0 to 100 scale, 0 is no effect, 100 is complete control, read-out: Plant response rating, Ragweed; for pest or weed control at 125 g/ha: 125 g ai/ha; for pest or weed control at 500 g/ha: 500 g ai/ha
In short: as §1

[10] = system: ryegrass, Italian (Italian ryegrass, Lolium multiflorum); assay: Test A postemergence ryegrass, Italian; conditions: Lolium multiflorum, post-emergence, 240 h, 0 to 100 scale, 0 is no effect, 100 is complete control, read-out: Plant response rating, Ryegrass, Italian; for pest or weed control at 125 g/ha: 125 g ai/ha; for pest or weed control at 500 g/ha: 500 g ai/ha
In short: as §1

[11] = system: foxtail, giant (giant foxtail, Setaria faberii); assay: Test A postemergence foxtail, giant; conditions: Setaria faberi, post-emergence, 240 h, 0 to 100 scale, 0 is no effect, 100 is complete control, read-out: Plant response rating, Foxtail, Giant; for pest or weed control at 125 g/ha: 125 g ai/ha; for pest or weed control at 500 g/ha: 500 g ai/ha
In short: as §1

[12] = system: pigweed (Amaranthus retroflexus); assay: Test A postemergence pigweed; conditions: Amaranthus retroflexus, post-emergence, 240 h, 0 to 100 scale, 0 is no effect, 100 is complete control, read-out: Plant response rating, Pigweed; for pest or weed control at 125 g/ha: 125 g ai/ha; for pest or weed control at 500 g/ha: 500 g ai/ha
In short: as §1

[13] = system: wheat (Triticum aestivum); assay: Test A postemergence wheat; conditions: Triticum aestivum, post-emergence, 240 h, 0 to 100 scale, 0 is no effect, 100 is complete control, read-out: Plant response rating, Wheat; for plant injury at 125 g/ha: 125 g ai/ha; for plant injury at 500 g/ha: 500 g ai/ha
In short: as §1

corn (Zea mays) = assay: Test A postemergence corn; conditions: Zea mays, post-emergence, 240 h, 0 to 100 scale, 0 is no effect, 100 is complete control; for Corn plant response rating (crop injury, 0 = no effect, 100 = complete kill) at 125 g/ha: 125 g ai/ha; for Corn plant response rating (crop injury, 0 = no effect, 100 = complete kill) at 500 g/ha: 500 g ai/ha
In short: as §1

[14] = system: blackgrass (Alopecurus myosuroides); assay: Test A postemergence blackgrass; conditions: Alopecurus myosuroides, post-emergence, 240 h, 0 to 100 scale, 0 is no effect, 100 is complete control, read-out: Plant response rating, Blackgrass; for pest or weed control at 125 g/ha: 125 g ai/ha; for pest or weed control at 500 g/ha: 500 g ai/ha
In short: as §1

[15] = system: galium (catchweed bedstraw, Galium aparine); assay: Test A postemergence galium; conditions: Galium, post-emergence, 240 h, 0 to 100 scale, 0 is no effect, 100 is complete control, read-out: Plant response rating, Galium; for pest or weed control at 125 g/ha: 125 g ai/ha; for pest or weed control at 500 g/ha: 500 g ai/ha
In short: as §1

rice (Oryza sativa) = assay: Test B flooded paddy test rice; conditions: Oryza sativa, Table B, Flood, 250 g ai/ha, scale 0 to 100, read-out: Plant response rating
In short: (§2)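 Test pots carrying 2-leaf-stage seedlings were flooded to 3 cm above the soil surface when treated. Compound went directly into the standing water. Plants stayed in the greenhouse at that depth for 13 to 15 d before visual comparison with controls.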

[16] = system: sedge, umbrella (small-flower umbrella sedge, Cyperus difformis); assay: Test B flooded paddy test sedge, umbrella; conditions: Cyperus difformis, Table B, Flood, 250 g ai/ha, scale 0 to 100, read-out: Plant response rating
In short: as §2

[17] = system: ducksalad (Heteranthera limosa); assay: Test B flooded paddy test ducksalad; conditions: Heteranthera limosa, Table B, Flood, 250 g ai/ha, scale 0 to 100, read-out: Plant response rating
In short: as §2

[18] = system: barnyardgrass (Echinochloa crus-galli); assay: Test B flooded paddy test barnyardgrass; conditions: Echinochloa crus-galli, Table B, Flood, 250 g ai/ha, scale 0 to 100, read-out: Plant response rating
In short: as §2

SMILES	pest or weed control at 125 g/ha [1] [%]	pest or weed control at 500 g/ha [1] [%]	pest or weed control at 125 g/ha (kochia (Kochia scoparia) [2]) [%]	pest or weed control at 500 g/ha (kochia (Kochia scoparia) [2]) [%]	pest or weed control at 125 g/ha [3] [%]	pest or weed control at 500 g/ha [3] [%]	pest or weed control at 125 g/ha [4] [%]	pest or weed control at 500 g/ha [4] [%]	pest or weed control at 125 g/ha [5] [%]	pest or weed control at 500 g/ha [5] [%]	pest or weed control at 125 g/ha [6] [%]	pest or weed control at 500 g/ha [6] [%]	pest or weed control at 125 g/ha [7] [%]	pest or weed control at 500 g/ha [7] [%]	pest or weed control at 125 g/ha (kochia (Kochia scoparia) [8]) [%]	pest or weed control at 500 g/ha (kochia (Kochia scoparia) [8]) [%]	pest or weed control at 125 g/ha [9] [%]	pest or weed control at 500 g/ha [9] [%]	pest or weed control at 125 g/ha [10] [%]	pest or weed control at 500 g/ha [10] [%]	other results
O=C1NCC[C@H](c2cccc(C(F)(F)F)c2)[C@H]1C(=O)Nc1cccc(Cl)c1F [Compound 25, (3R,4S)—N-(3-chloro-2-fluorophenyl)-2-oxo-4-[3-(trifluoromethyl)phenyl]-3-piperidinecarboxamide]	90	90	0	0	0	0	0	50	90	90	0	0	80	80	0	0	0	0	30	40	pest or weed control at 125 g/ha [11]: 80%; pest or weed control at 500 g/ha [11]: 80%; pest or weed control at 125 g/ha [12]: 0%; pest or weed control at 500 g/ha [12]: 0%; plant injury at 125 g/ha [13]: 40%; plant injury at 500 g/ha [13]: 60%; Corn plant response rating (crop injury, 0 = no effect, 100 = complete kill) at 125 g/ha (corn (Zea mays)): 20%; Corn plant response rating (crop injury, 0 = no effect, 100 = complete kill) at 500 g/ha (corn (Zea mays)): 70%; pest or weed control at 125 g/ha [14]: 60%; pest or weed control at 500 g/ha [14]: 80%; pest or weed control at 125 g/ha [15]: 30%; pest or weed control at 500 g/ha [15]: 30%; plant injury at 250 g/ha (rice (Oryza sativa)): 0%; pest or weed control at 250 g/ha [16]: 0%; pest or weed control at 250 g/ha [17]: 45%; pest or weed control at 250 g/ha [18]: 60%
O=C1NCCC(c2cccc(C(F)(F)F)c2)C1C(=O)Nc1ccc(F)c(F)c1F (stereo not drawn) [Compound 30, 2-oxo-4-[3-(trifluoromethyl)phenyl]-N-(2,3,4-trifluorophenyl)-3-piperidinecarboxamide]	90	90	0	0	0	0	20	50	90	90	0	0	80	80	0	0	0	0	0	20	pest or weed control at 125 g/ha [11]: 80%; pest or weed control at 500 g/ha [11]: 80%; pest or weed control at 125 g/ha [12]: 0%; pest or weed control at 500 g/ha [12]: 0%; plant injury at 125 g/ha [13]: 30%; plant injury at 500 g/ha [13]: 60%; Corn plant response rating (crop injury, 0 = no effect, 100 = complete kill) at 125 g/ha (corn (Zea mays)): 30%; Corn plant response rating (crop injury, 0 = no effect, 100 = complete kill) at 500 g/ha (corn (Zea mays)): 70%; pest or weed control at 125 g/ha [14]: 70%; pest or weed control at 500 g/ha [14]: 80%; pest or weed control at 125 g/ha [15]: 0%; pest or weed control at 500 g/ha [15]: 0%; plant injury at 250 g/ha (rice (Oryza sativa)): 20%; pest or weed control at 250 g/ha [16]: 0%; pest or weed control at 250 g/ha [17]: 50%; pest or weed control at 250 g/ha [18]: 50%
